Laboratory results: patent publication US8796463B2 (priority 2009, dated 2014)

What was measured:
[1] = log P by HPLC on reversed phase columns (EEC directive 79/831 Annex V.A8); format: physicochemical; conditions: pH 2.7, 0.1% formic acid in water / acetonitrile gradient
Experimental: Measurement of log P values was performed according EEC directive 79/831 Annex V.A8 by HPLC (High Performance Liquid Chromatography) on reversed phase columns with the following method:
measurement of LC-MS was done at pH 2.7 with 0.1% formic acid in water and with acetonitrile (contains 0.1% formic acid) as eluent with a linear gradient from 10% acetonitrle to 95% acetonitrile.
Calibration was done with not branched alkan2-ones (with 3 to 16 carbon atoms) with known log P-values (measurement of log P values using retention times with linear interpolation between successive alkanones). lambda-maX-values were determined using UV-spectra from 200 nm to 400 nm and the peak values of the chromatographic signals.

Phytophthora infestans = format: in vivo; conditions: tomato, preventive spray, 100 ppm of active ingredient, evaluated 7 days after inoculation

Compound | logp [1] | Efficacy % (Phytophthora infestans) [%]
Cn1nnnc1C(=NOCc1cccc(NC(=O)C2CC(=O)c3cc(F)ccc3O2)n1)c1ccccc1 (centres unmarked) [Example 1] | 3.46 | 93
Cn1nnnc1C(=NOCc1cccc(NC(=O)C2CCc3cc(I)ccc3O2)n1)c1ccccc1 (centres unmarked) [Example 2] | 4.7 | 95
COc1cccc2c1OC(C(=O)Nc1cccc(CON=C(c3ccccc3)c3nnnn3C)n1)CC2 (centres unmarked) [Example 3] | 3.92 | 95
Cn1nnnc1C(=NOCc1cccc(NC(=O)C2CCc3cc(F)ccc3O2)n1)c1ccccc1 (centres unmarked) [Example 4] | 4.01 | 95
Cn1nnnc1C(=NOCc1cccc(NC(=O)C2COc3ccc(C(C)(C)C)cc3O2)n1)c1ccccc1 (centres unmarked) [Example 6] | 4.92 | 93
Cc1ccc2c(c1)OC(C(=O)Nc1nc(CON=C(c3ccccc3)c3nnnn3C)cs1)CO2 (centres unmarked) [Example 12] | 3.78 | 95
Cc1cccc2c1OC(C(=O)Nc1nc(CON=C(c3ccccc3)c3nnnn3C)cs1)CO2 (centres unmarked) [Example 13] | 3.83 | 98
Cn1nnnc1C(=NOCc1csc(NC(=O)C2COc3ccccc3O2)n1)c1ccccc1 (centres unmarked) [Example 14] | 3.46 | 90
Cn1nnnc1C(=NOCc1csc(NC(=O)C2COc3ccc(C(C)(C)C)cc3O2)n1)c1ccccc1 (centres unmarked) [Example 15] | 4.62 | 90
Cn1nnnc1C(=NOCc1csc(NC(=O)C2CC(=O)c3cc(F)ccc3O2)n1)c1ccccc1 (centres unmarked) [Example 16] | 3.29 | 93
Cn1nnnc1C(=NOCc1csc(NC(=O)C2CCc3cc(I)ccc3O2)n1)c1ccccc1 (centres unmarked) [Example 17] | 4.44 | 93
COc1cccc2c1OC(C(=O)Nc1nc(CON=C(c3ccccc3)c3nnnn3C)cs1)CC2 (centres unmarked) [Example 18] | 3.64 | 95
Cn1nnnc1C(=NOCc1csc(NC(=O)C2CCc3cc(F)ccc3O2)n1)c1ccccc1 (centres unmarked) [Example 19] | 3.8 | 95
Cn1nnnc1C(=NOCc1csc(NC(=O)C2CCc3ccccc3O2)n1)c1ccccc1 (centres unmarked) [Example 20] | 3.78 | 93
Cc1nnnn1C(=NOCc1cccc(NC(=O)C2CCc3cc(I)ccc3O2)n1)c1ccccc1 (centres unmarked) [Example 21] | 4.81 | 80
COc1cccc2c1OC(C(=O)Nc1cccc(CON=C(c3ccccc3)n3nnnc3C)n1)CC2 (centres unmarked) [Example 22] | 3.99 | 80
Cc1nnnn1C(=NOCc1cccc(NC(=O)C2CCc3cc(F)ccc3O2)n1)c1ccccc1 (centres unmarked) [Example 23] | 4.11 | 90
Cc1nnnn1C(=NOCc1cccc(NC(=O)C2CCc3ccccc3O2)n1)c1ccccc1 (centres unmarked) [Example 24] | 4.08 | 93
Cc1nnnn1C(=NOCc1cccc(NC(=O)C2COc3ccc(C(C)(C)C)cc3O2)n1)c1ccccc1 (centres unmarked) [Example 25] | 5.03 | 93
Cc1ccc2c(c1)OC(C(=O)Nc1cccc(CON=C(c3ccccc3)n3nnnc3C)n1)CO2 (centres unmarked) [Example 26] | 4.11 | 95
Cc1cccc2c1OC(C(=O)Nc1cccc(CON=C(c3ccccc3)n3nnnc3C)n1)CO2 (centres unmarked) [Example 27] | 4.15 | 95
Cc1nnnn1C(=NOCc1cccc(NC(=O)C2COc3ccccc3O2)n1)c1ccccc1 (centres unmarked) [Example 28] | 3.78 | 98

Compound | logp [1] | Efficacy % (Phytophthora infestans) [%]
Cc1nnnn1C(=NOCc1cccc(NC(=O)C2CC(=O)c3cc(F)ccc3O2)n1)c1ccccc1 (centres unmarked) [Example 29] | 3.53 | 90
COc1cccc2c1OC(C(=O)Nc1nc(CON=C(c3ccccc3)n3nnnc3C)cs1)CC2 (centres unmarked) [Example 30] | 3.69 | 95
Cc1nnnn1C(=NOCc1csc(NC(=O)C2CCc3cc(F)ccc3O2)n1)c1ccccc1 (centres unmarked) [Example 31] | 3.87 | 95
Cc1nnnn1C(=NOCc1csc(NC(=O)C2CCc3ccccc3O2)n1)c1ccccc1 (centres unmarked) [Example 32] | 3.83 | 95
Cc1nnnn1C(=NOCc1csc(NC(=O)C2COc3ccc(C(C)(C)C)cc3O2)n1)c1ccccc1 (centres unmarked) [Example 33] | 4.67 | 90
Cc1ccc2c(c1)OC(C(=O)Nc1nc(CON=C(c3ccccc3)n3nnnc3C)cs1)CO2 (centres unmarked) [Example 34] | 3.83 | 95
Cc1cccc2c1OC(C(=O)Nc1nc(CON=C(c3ccccc3)n3nnnc3C)cs1)CO2 (centres unmarked) [Example 35] | 3.87 | 95
Cc1nnnn1C(=NOCc1csc(NC(=O)C2COc3ccccc3O2)n1)c1ccccc1 (centres unmarked) [Example 36] | 3.51 | 95
Cc1nnnn1C(=NOCc1csc(NC(=O)C2CC(=O)c3cc(F)ccc3O2)n1)c1ccccc1 (centres unmarked) [Example 37] | 3.33 | 95
Cc1nnnn1C(=NOCc1csc(NC(=O)C2CCc3cc(I)ccc3O2)n1)c1ccccc1 (centres unmarked) [Example 38] | 4.49 | 95
COc1ccc2c(c1)OC(C(=O)Nc1cccc(CON=C(c3ccccc3)c3nnnn3C)n1)CC2 (centres unmarked) [Example 39] | 3.96 | 95
Cc1nnnn1C(=NOCc1cccc(NC(=O)c2cc(=O)c3ccccc3o2)n1)c1ccccc1 [Example 43] | 3.33 | 85
Cc1nnnn1C(=NOCc1csc(NC(=O)c2cc(=O)c3ccccc3o2)n1)c1ccccc1 [Example 44] | 3.21 | 95
Cc1nnnn1C(=NOCc1csc(NC(=O)C2Oc3ccccc3O2)n1)c1ccccc1 [Example 46] | 3.31 | 75
Cn1nnnc1C(=NOCc1csc(NC(=O)c2cc(=O)c3ccccc3o2)n1)c1ccccc1 [Example 47] | 3.17 | 70
Cn1nnnc1C(=NOCc1csc(NC(=O)C2Oc3ccccc3O2)n1)c1ccccc1 [Example 48] | 3.29 | 80
Cn1nnnc1C(=NOCc1csc(NC(=O)C2COc3ccccc32)n1)c1ccccc1 (centres unmarked) [Example 49] | 3.19 | –
Cc1nnnn1C(=NOCc1cccc(NC(=O)C2Oc3ccccc3O2)n1)c1ccccc1 [Example 57] | 3.48 | 88
Cc1nnnn1C(=NOCc1cccc(NC(=O)C2COc3ccccc32)n1)c1ccccc1 (centres unmarked) [Example 58] | 3.39 | –
Cn1nnnc1C(=NOCc1cccc(NC(=O)c2cc(=O)c3ccccc3o2)n1)c1ccccc1 [Example 59] | 3.27 | 95
Cn1nnnc1C(=NOCc1cccc(NC(=O)C2COc3ccccc32)n1)c1ccccc1 (centres unmarked) [Example 61] | 3.37 | –
